Laboratory results: ChEMBL document CHEMBL1201862, “PubChem BioAssay data set” (2004)
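Dose response: 5 concentrations. Exposure: 48 h. Format: 96-well plates. Endpoint: linear interpolation; highest concentration if not reached. GI50: concentration for 50% inhibition of growth.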 The source made the active and inactive calls. No stated cut-off is given here; in the data, active = GI50 up to about 1.1 µM and inactive = higher.

How the values were obtained:
Assay in all cases: growth of human tumour cells (NCI), 48 h
786-0 = test system: 786-0
A498 = test system: A498
A549 = test system: A549
BT-549 = test system: BT-549
COLO 205 = test system: COLO 205
DU-145 = test system: DU-145
Hs-578T = test system: Hs-578T
K562 = test system: K562
MDA-MB-231 = test system: MDA-MB-231
MDA-MB-435 = test system: MDA-MB-435
OVCAR-3 = test system: OVCAR-3
OVCAR-4 = test system: OVCAR-4
OVCAR-8 = test system: OVCAR-8
SF-295 = test system: SF-295
SK-MEL-2 = test system: SK-MEL-2
SW-620 = test system: SW-620
U-251 = test system: U-251
UACC-257 = test system: UACC-257
SK-OV-3 = test system: SK-OV-3

Compound | GI50 (786-0) | GI50 (A498) | GI50 (A549) | GI50 (BT-549) | GI50 (COLO 205) | GI50 (DU-145) | GI50 (Hs-578T) | GI50 (K562) | GI50 (MDA-MB-231) | GI50 (MDA-MB-435) | GI50 (OVCAR-3) | GI50 (OVCAR-4) | GI50 (OVCAR-8) | GI50 (SF-295) | GI50 (SK-MEL-2) | GI50 (SW-620) | GI50 (U-251) | GI50 (UACC-257) | GI50 (SK-OV-3)
O=C1C2=Nc3ccccc3C(O)(C(=O)O)N2c2ccccc21 (stereo unspecified) | 36.5 µM (inactive) | 29.5 µM (inactive) | 7.66 µM (inactive) | > 10 µM (inactive) | 16.4 µM (inactive) | 16.3 µM (inactive) | 27.7 µM (inactive) | 20.8 µM (inactive) | 17.2 µM (inactive) | 2.26 µM (inactive) | 14 µM (inactive) | 14.3 µM (inactive) | 17.5 µM (inactive) | 17.2 µM (inactive) | 13.3 µM (inactive) | 19.4 µM (inactive) | 19.9 µM (inactive) | 10.7 µM (inactive) | 
C=CCOc1ccc2c(C)cc(=O)oc2c1C | 84.9 µM (inactive) | 31.5 µM (inactive) | 50.7 µM (inactive) | 32 µM (inactive) | 44.3 µM (inactive) | > 100 µM (inactive) | 26.9 µM (inactive) | 52.5 µM (inactive) | 32.2 µM (inactive) | 44.2 µM (inactive) | > 100 µM (inactive) | 96.4 µM (inactive) | 56.8 µM (inactive) | 23.3 µM (inactive) | > 100 µM (inactive) | 67 µM (inactive) | 54.2 µM (inactive) | > 100 µM (inactive) | 
CCOC(=O)C(C(=O)COC(C)(C)C)[C@@H]1C=C[C@H](OC(C)=O)C1 (stereo partly specified) | > 100 µM (inactive) | > 100 µM (inactive) | > 100 µM (inactive) | > 100 µM (inactive) | > 100 µM (inactive) |  | > 100 µM (inactive) | > 100 µM (inactive) | > 100 µM (inactive) | > 100 µM (inactive) | > 100 µM (inactive) | > 100 µM (inactive) |  | > 100 µM (inactive) | > 100 µM (inactive) | > 100 µM (inactive) | > 100 µM (inactive) | > 100 µM (inactive) | > 100 µM (inactive)
c1ccc(C(/C(=N/c2ccc(Cc3ccc(/N=C(\C(c4ccccc4)c4ccccc4)N4CC4)cc3)cc2)N2CC2)c2ccccc2)cc1 | 14.8 µM (inactive) | 12.5 µM (inactive) | 7.36 µM (inactive) | 10.5 µM (inactive) | 3.27 µM (inactive) | 12.6 µM (inactive) | 10.6 µM (inactive) | 2.33 µM (inactive) | 12.2 µM (inactive) | 8.73 µM (inactive) | 3.66 µM (inactive) |  | 10.7 µM (inactive) | 9.31 µM (inactive) | 7.01 µM (inactive) | 6.3 µM (inactive) | 12.7 µM (inactive) | 11.6 µM (inactive) | < 0.01 µM (active)
CC[C@H](NC1=C(Cl)C(=O)c2c(O)ccc(O)c2C1=O)C(=O)OC | 4.69 µM (inactive) |  | > 10 µM (inactive) | > 10 µM (inactive) | 3.58 µM (inactive) | > 10 µM (inactive) | > 10 µM (inactive) | 3.94 µM (inactive) | 3.33 µM (inactive) | 3.26 µM (inactive) | 4.19 µM (inactive) | 7.71 µM (inactive) | 4.63 µM (inactive) | > 10 µM (inactive) | > 10 µM (inactive) | 5.79 µM (inactive) | 6.12 µM (inactive) | 3.66 µM (inactive) | > 10 µM (inactive)
CC(=O)CC1(O)C(=O)c2c(Br)sc(Br)c2C1=O | 23.7 µM (inactive) | > 100 µM (inactive) | 58.1 µM (inactive) | 19 µM (inactive) | 18.7 µM (inactive) | 42.8 µM (inactive) | 31.3 µM (inactive) | 32.8 µM (inactive) |  | 20 µM (inactive) | 16.9 µM (inactive) | 18.6 µM (inactive) | 23 µM (inactive) | > 100 µM (inactive) | 22.2 µM (inactive) | 25.1 µM (inactive) | 24 µM (inactive) | 19.6 µM (inactive) | 36.8 µM (inactive)
O=S(=O)(O)c1ccc(/N=N/c2ccc(/N=N/c3c(O)ccc4ccccc34)cc2)cc1 | > 100 µM (inactive) |  | > 100 µM (inactive) | > 100 µM (inactive) | > 100 µM (inactive) | > 89.3 µM (inactive) | > 100 µM (inactive) | > 100 µM (inactive) | > 100 µM (inactive) | > 100 µM (inactive) | > 100 µM (inactive) | > 100 µM (inactive) | > 100 µM (inactive) | > 100 µM (inactive) | > 100 µM (inactive) | > 100 µM (inactive) | > 100 µM (inactive) | > 100 µM (inactive) | > 100 µM (inactive)
Cc1ccc([N+](=O)[O-])c2c(NCC(O)CO)ccnc12 (stereo unspecified) | 30.5 µM (inactive) |  | 25.4 µM (inactive) | 47 µM (inactive) | 25.5 µM (inactive) | 51.4 µM (inactive) | 7.71 µM (inactive) | 50 µM (inactive) |  | 71.6 µM (inactive) | 36.1 µM (inactive) | 52.8 µM (inactive) | 47 µM (inactive) | 42.1 µM (inactive) | 14.3 µM (inactive) | 49.2 µM (inactive) | 93.8 µM (inactive) | 36.4 µM (inactive) | > 100 µM (inactive)
O=c1c(-c2ccccc2)c(SCCO)n(-c2ccccc2)c(=S)n1-c1ccccc1 | > 100 µM (inactive) |  | > 100 µM (inactive) | > 100 µM (inactive) | > 100 µM (inactive) | > 100 µM (inactive) | 99.5 µM (inactive) | > 100 µM (inactive) |  | > 100 µM (inactive) | > 100 µM (inactive) | > 100 µM (inactive) | > 100 µM (inactive) | > 100 µM (inactive) | > 100 µM (inactive) | > 100 µM (inactive) | > 100 µM (inactive) | > 100 µM (inactive) | > 100 µM (inactive)
O=S(=O)(Nc1nc2ccccc2nc1N1CCCCCC1)c1ccccc1 | > 100 µM (inactive) |  | 24.7 µM (inactive) | 19 µM (inactive) | > 100 µM (inactive) | > 100 µM (inactive) | 17.5 µM (inactive) | > 100 µM (inactive) | > 100 µM (inactive) | 23 µM (inactive) | 17.1 µM (inactive) | 4.05 µM (inactive) | 29 µM (inactive) | 24.1 µM (inactive) | 16.3 µM (inactive) | 22.7 µM (inactive) | 18.6 µM (inactive) | 24.5 µM (inactive) | 28.2 µM (inactive)
Oc1ccc(Cl)cc1/N=N\c1c(O)ccc2ccccc12 | > 100 µM (inactive) |  | > 100 µM (inactive) | > 100 µM (inactive) | > 100 µM (inactive) |  | > 100 µM (inactive) | > 100 µM (inactive) | > 100 µM (inactive) | > 100 µM (inactive) | > 100 µM (inactive) | > 100 µM (inactive) | > 100 µM (inactive) | > 100 µM (inactive) | > 100 µM (inactive) | > 100 µM (inactive) | > 100 µM (inactive) | > 100 µM (inactive) | > 100 µM (inactive)
NC(=O)NCCCC(NC(=O)OCCCCn1ccc(=O)[nH]c1=O)C(=O)O (stereo unspecified) | > 100 µM (inactive) |  | > 100 µM (inactive) | > 100 µM (inactive) | > 100 µM (inactive) | > 100 µM (inactive) | > 100 µM (inactive) | > 100 µM (inactive) | > 100 µM (inactive) | > 100 µM (inactive) | > 100 µM (inactive) | > 100 µM (inactive) | > 100 µM (inactive) | > 100 µM (inactive) | > 100 µM (inactive) | > 100 µM (inactive) | > 100 µM (inactive) | > 100 µM (inactive) | > 100 µM (inactive)
N#CC1CCN2N=C(c3ccccc3)SC12c1ccccc1 (stereo unspecified) | 89.1 µM (inactive) |  | 23.7 µM (inactive) | 43 µM (inactive) | 40.7 µM (inactive) |  | 88.3 µM (inactive) | 28.6 µM (inactive) | > 100 µM (inactive) | 61.4 µM (inactive) |  | 76.7 µM (inactive) | 76.6 µM (inactive) | 60.5 µM (inactive) | 53.3 µM (inactive) | 39.4 µM (inactive) | 44 µM (inactive) | 39.3 µM (inactive) | > 100 µM (inactive)
COc1ccc(NC(C)=O)cc1N1C(=O)/C(=C\c2cccc(Oc3ccccc3)c2)S(=O)(=O)C1c1ccccc1 (stereo unspecified) | 32.2 µM (inactive) | > 100 µM (inactive) | 62.8 µM (inactive) | 53.3 µM (inactive) | 58.2 µM (inactive) | 39 µM (inactive) |  | 22.8 µM (inactive) | 49 µM (inactive) | 33.8 µM (inactive) | 28.5 µM (inactive) | 16.1 µM (inactive) | 35.1 µM (inactive) | 53.1 µM (inactive) | 69.5 µM (inactive) | 28.4 µM (inactive) | 32.7 µM (inactive) | 49.3 µM (inactive) | > 100 µM (inactive)
O=C1NC(S(=O)(=O)O)=NNC12c1ccccc1-c1ccccc12 | > 10 µM (inactive) |  | > 10 µM (inactive) | > 10 µM (inactive) | > 10 µM (inactive) | > 10 µM (inactive) | > 10 µM (inactive) | > 10 µM (inactive) | > 10 µM (inactive) | > 10 µM (inactive) |  | > 10 µM (inactive) | > 10 µM (inactive) | > 10 µM (inactive) |  | > 10 µM (inactive) |  | > 10 µM (inactive) | > 10 µM (inactive)
CC(C)(C)OC(=O)NNC(=O)C1Cc2ccccc2OC1=O (stereo unspecified) | > 100 µM (inactive) |  | > 100 µM (inactive) | > 100 µM (inactive) |  | > 100 µM (inactive) | > 100 µM (inactive) | > 100 µM (inactive) |  | > 100 µM (inactive) | > 100 µM (inactive) |  | > 100 µM (inactive) | > 100 µM (inactive) | > 100 µM (inactive) | > 100 µM (inactive) | > 100 µM (inactive) | > 100 µM (inactive) | > 100 µM (inactive)
